Reference: publication PMC11079024, “Identification of a family of species-selective complex I inhibitors as potential anthelmintics” (Nature Communications, 2024)
Values joined by “and” are separate entries in the source; they are usually repeats but may differ in a detail not shown here. Identical values can stand only once. Like-named read-outs stand apart in the source and are kept apart here.

Columns and labels:
in vitro = details: human, HEK293 Cell Viability Assay LC50, 2 days exposure
[1] = target: B. taurus (heart) complex I (Bos taurus, UniProt P03887+P17694+P42026); assay: biochemical; type: biochemical; details: for activity at 0.0001 µM / Complex I activity, dose-response data / activity at 0.0005 µM / activity at 0.001 µM / activity at 0.0025 µM / activity at 0.005 µM / activity at 0.013 µM / activity at 0.025 µM / activity at 0.063 µM / activity at 0.125 µM / activity at 0.313 µM / activity at 0.625 µM / activity at 1.5 µM / activity at 3 µM / activity at 15 µM / activity at 37.5 µM / activity at 75 µM: B. taurus; for activity at 0.0001 µM / activity at 0.0005 µM / activity at 0.001 µM / activity at 0.0025 µM / activity at 0.005 µM / activity at 0.013 µM / activity at 0.025 µM / activity at 0.063 µM / activity at 0.125 µM / activity at 0.313 µM / activity at 0.625 µM / activity at 1.5 µM / activity at 3 µM / activity at 15 µM / activity at 37.5 µM / activity at 75 µM: read-out: Complex I activity, dose-response data; for IC50: heart mitochondria, read-out: B. taurus Complex I IC50
Chain of B. taurus (heart) complex I (P03887 whole entry): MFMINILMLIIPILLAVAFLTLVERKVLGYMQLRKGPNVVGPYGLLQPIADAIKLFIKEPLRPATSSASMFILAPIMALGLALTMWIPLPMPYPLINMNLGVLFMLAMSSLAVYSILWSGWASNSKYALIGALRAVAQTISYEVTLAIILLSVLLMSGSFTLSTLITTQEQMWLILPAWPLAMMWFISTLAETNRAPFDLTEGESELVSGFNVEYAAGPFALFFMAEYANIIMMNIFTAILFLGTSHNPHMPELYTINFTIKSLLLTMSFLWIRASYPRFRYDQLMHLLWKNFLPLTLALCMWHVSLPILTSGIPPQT
Chain of B. taurus (heart) complex I (P17694 34-463): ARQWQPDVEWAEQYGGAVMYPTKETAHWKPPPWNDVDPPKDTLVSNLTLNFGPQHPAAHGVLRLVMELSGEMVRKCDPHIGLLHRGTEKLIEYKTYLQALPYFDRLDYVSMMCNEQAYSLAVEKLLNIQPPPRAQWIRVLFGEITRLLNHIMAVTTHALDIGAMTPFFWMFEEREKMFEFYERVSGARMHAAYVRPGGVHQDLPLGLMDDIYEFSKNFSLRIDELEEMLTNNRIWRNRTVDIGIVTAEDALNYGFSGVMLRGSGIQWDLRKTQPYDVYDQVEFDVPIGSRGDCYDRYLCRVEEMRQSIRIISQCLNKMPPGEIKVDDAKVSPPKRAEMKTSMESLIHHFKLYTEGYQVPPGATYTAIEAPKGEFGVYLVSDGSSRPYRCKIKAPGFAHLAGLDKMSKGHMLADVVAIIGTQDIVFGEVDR
Chain of B. taurus (heart) complex I (P42026 38-216): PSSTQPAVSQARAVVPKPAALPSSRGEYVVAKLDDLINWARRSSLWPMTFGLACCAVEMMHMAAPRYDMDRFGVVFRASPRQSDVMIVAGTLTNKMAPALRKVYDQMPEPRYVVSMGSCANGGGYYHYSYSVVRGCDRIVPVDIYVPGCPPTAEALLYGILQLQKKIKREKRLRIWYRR
How it was run: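 Complex I activity followed as DCIP reduction (600 nm, 30 s reads, 15 min) with 80 μM NADH and 60 μM decylubiquinone in 25 mM KPi pH 7.5 containing 2 μM antimycin A and 2 mM KCN. Freeze-thawed mouse or bovine heart mitochondria at 0.2 mg/mL; initial-rate percent of solvent control, single-point 100 μM or dose-response.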

[2] = test system: ben-1 mutant (ECA882) C. elegans; assay: microbe, parasite or virus in culture; details: for C. elegans L1 relative development & viability (score 0-1 relative to DMSO controls): strain ECA882, deletion (ben-1); for LC50: Caenorhabditis elegans; for C. elegans L1 relative development & viability: ECA882 deletion (ben-1)
How it was run: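 L1 larvae (~2 worms/μL in M9) in liquid NGM with 2-fold concentrated E. coli HB101, compound at 1% DMSO, 6 days at 20 °C shaking 165 rpm. Well images scored as summed worm-associated pixels, normalized to DMSO controls; relative viability averaged over at least three biological replicates.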

L1 wild-type C. elegans = details: […], mean of replicates
[3] = dose 0.0001 µM, Mean of replicates
[4] = dose 0.0001 µM, individual replicates (Rep)
[5] = dose 0.0005 µM, Mean of replicates
[6] = dose 0.0005 µM, individual replicates (Rep)
[7] = dose 0.001 µM, Mean of replicates
[8] = dose 0.001 µM, individual replicates (Rep)
[9] = dose 0.0025 µM, Mean of replicates
[10] = dose 0.0025 µM, individual replicates (Rep)
[11] = dose 0.005 µM, Mean of replicates
[12] = dose 0.005 µM, individual replicates (Rep)
[13] = dose 0.013 µM, Mean of replicates
[14] = dose 0.013 µM, individual replicates (Rep)
[15] = dose 0.025 µM, Mean of replicates
[16] = dose 0.025 µM, individual replicates (Rep)
[17] = dose 0.063 µM, Mean of replicates
[18] = dose 0.063 µM, individual replicates (Rep)
[19] = dose 0.125 µM, Mean of replicates
[20] = dose 0.125 µM, individual replicates (Rep)
[21] = dose 0.313 µM, Mean of replicates
[22] = dose 0.313 µM, individual replicates (Rep)
[23] = dose 0.625 µM, Mean of replicates
[24] = dose 0.625 µM, individual replicates (Rep)
[25] = dose 1.5 µM, Mean of replicates
[26] = dose 1.5 µM, individual replicates (Rep)
[27] = dose 3 µM, individual replicates (Rep)
[28] = dose 15 µM, individual replicates (Rep)
[29] = dose 37.5 µM, Mean of replicates
[30] = dose 37.5 µM, individual replicates (Rep)
[31] = dose 75 µM, individual replicates (Rep)

## COc1cc2c(cc1OC)C(c1ccc(-c3ccc(Cl)c(Cl)c3)o1)=NCC2 [NPD3577]
In vitro
  CC50 at 2 days: 21.4 µM
[1]; [3]
  activity at 0.0001 µM: 105%
[1]; [4]
  Complex I activity, dose-response data: 103.121 and 101.731 and 110.652
  activity at 0.0001 µM: 106%
[1]; [5]
  activity at 0.0005 µM: 100%
[1]; [6]
  activity at 0.0005 µM: 100%
[1]; [7]
  activity at 0.001 µM: 106%
[1]; [8]
  Complex I activity, dose-response data: 115.208 and 104.399 and 94.945 and 110.770
[1]; [9]
  activity at 0.0025 µM: 109%
[1]; [10]
  Complex I activity, dose-response data: 105.176 and 104.207 and 109.459
  activity at 0.0025 µM: 117%
[1]; [11]
  activity at 0.005 µM: 109%
[1]; [12]
  Complex I activity, dose-response data: 109.688 and 97.845 and 112.943
  activity at 0.005 µM: 116%
[1]; [13]
  activity at 0.013 µM: 106%
[1]; [14]
  Complex I activity, dose-response data: 116.009 and 85.825 and 105.823 and 114.478
[1]; [15]
  activity at 0.025 µM: 115%
[1]; [16]
  Complex I activity, dose-response data: 117.057 and 109.262 and 110.097
  activity at 0.025 µM: 124%
[1]; [17]
  activity at 0.063 µM: 111%
[1]; [18]
  Complex I activity, dose-response data: 116.393 and 107.485 and 112.565
  activity at 0.063 µM: 107%
[1]; [19]
  activity at 0.125 µM: 106%
[1]; [20]
  Complex I activity, dose-response data: 115.491 and 103.072 and 105.491
  activity at 0.125 µM: 100%
[1]; [21]
  activity at 0.313 µM: 109%
[1]; [22]
  Complex I activity, dose-response data: 109.249 and 104.276 and 103.070
  activity at 0.313 µM: 118%
[1]; [23]
  activity at 0.625 µM: 99%
[1]; [24]
  Complex I activity, dose-response data: 89.823 and 107.117 and 107.828
  activity at 0.625 µM: 91.2%
[1]; [25]
  activity at 1.5 µM: 100%
[1]; [26]
  activity at 1.5 µM: 100%
[1]; dose 3 µM, Mean of replicates
  activity at 3 µM: 95.5%
[1]; [27]
  Complex I activity, dose-response data: 93.418 and 99.797 and 99.095
  activity at 3 µM: 89.6%
[1]; dose 15 µM, Mean of replicates
  activity at 15 µM: 43.4%
[1]; [28]
  Complex I activity, dose-response data: 55.501 and 46.406 and 43.941 and 27.922
[1]; [29]
  activity at 37.5 µM: 26.1%
[1]; [30]
  Complex I activity, dose-response data: 16.844 and 31.768 and 25.172
  activity at 37.5 µM: 30.8%
[1]; dose 75 µM, Mean of replicates
  activity at 75 µM: 23.8%
[1]; [31]
  Complex I activity, dose-response data: 15.504 and 26.993 and 22.808
  activity at 75 µM: 30%
[1]
  IC50: 9.49 µM

## COc1cc2c(cc1OC)C(/C=C/c1ccc(N(C)C)cc1)=NCC2 [NPD6303]
In vitro
  CC50 at 2 days: 33.4 µM
[1]; [3]
  activity at 0.0001 µM: 91.7%
[1]; [4]
  Complex I activity, dose-response data: 93.903 and 88.856 and 86.554
  activity at 0.0001 µM: 97.5%
[1]; [5]
  activity at 0.0005 µM: 92.3%
[1]; [6]
  Complex I activity, dose-response data: 92.515 and 88.363 and 93.860
  activity at 0.0005 µM: 94.5%
[1]; [7]
  activity at 0.001 µM: 92%
[1]; [8]
  Complex I activity, dose-response data: 95.392 and 88.341 and 90.155
  activity at 0.001 µM: 93.9%
[1]; [9]
  activity at 0.0025 µM: 91.7%
[1]; [10]
  Complex I activity, dose-response data: 92.736 and 89.606 and 94.534
  activity at 0.0025 µM: 89.8%
[1]; [11]
  activity at 0.005 µM: 93.7%
[1]; [12]
  Complex I activity, dose-response data: 98.592 and 81.676 and 99.845
  activity at 0.005 µM: 94.8%
[1]; [13]
  activity at 0.013 µM: 94.7%
[1]; [14]
  Complex I activity, dose-response data: 95.041 and 103.924 and 78.354 and 101.425
[1]; [15]
  activity at 0.025 µM: 91.5%
[1]; [16]
  Complex I activity, dose-response data: 93.260 and 100.684 and 76.425 and 95.829
[1]; [17]
  activity at 0.063 µM: 90.4%
[1]; [18]
  Complex I activity, dose-response data: 90.670 and 95.493 and 75.718 and 99.663
[1]; [19]
  activity at 0.125 µM: 88.5%
[1]; [20]
  Complex I activity, dose-response data: 91.682 and 93.823 and 68.860 and 99.585
[1]; [21]
  activity at 0.313 µM: 88.2%
[1]; [22]
  Complex I activity, dose-response data: 96.036 and 78.933 and 86.373
  activity at 0.313 µM: 91.3%
[1]; [23]
  activity at 0.625 µM: 97.3%
[1]; [24]
  Complex I activity, dose-response data: 107.704 and 91.974 and 95.636
  activity at 0.625 µM: 93.9%
[1]; [25]
  activity at 1.5 µM: 93.1%
[1]; [26]
  Complex I activity, dose-response data: 104.204 and 86.663 and 89.601
  activity at 1.5 µM: 92.1%
[1]; dose 3 µM, Mean of replicates
  activity at 3 µM: 91.2%
[1]; [27]
  Complex I activity, dose-response data: 87.892 and 104.226 and 89.807 and 82.898
[1]; dose 15 µM, Mean of replicates
  activity at 15 µM: 76.4%
[1]; [28]
  Complex I activity, dose-response data: 86.661 and 69.921 and 66.695
  activity at 15 µM: 82.4%
[1]; [29]
  activity at 37.5 µM: 51.7%
[1]; [30]
  Complex I activity, dose-response data: 53.115 and 63.240 and 41.319 and 49.280
[1]; dose 75 µM, Mean of replicates
  activity at 75 µM: 29.9%
[1]; [31]
  Complex I activity, dose-response data: 35.395 and 24.387 and 27.438
  activity at 75 µM: 32.4%
[1]
  IC50: 34.3 µM

## COC(=O)Nc1nc2ccc(Sc3ccccc3)cc2[nH]1 [fenbendazole, reference compound]
[2]; 1 µM
  C. elegans L1 relative development & viability (score 0-1 relative to DMSO controls): 1.000
[2]; 2 µM
  C. elegans L1 relative development & viability (score 0-1 relative to DMSO controls): 1.000
[2]; 3.9 µM
  C. elegans L1 relative development & viability (score 0-1 relative to DMSO controls): 1.000
[2]; 15.6 µM
  C. elegans L1 relative development & viability (score 0-1 relative to DMSO controls): 0.861
[2]; 31.3 µM
  C. elegans L1 relative development & viability (score 0-1 relative to DMSO controls): 0.962
[2]; 62.5 µM
  C. elegans L1 relative development & viability (score 0-1 relative to DMSO controls): 0.936
[2]; 125 µM
  C. elegans L1 relative development & viability (score 0-1 relative to DMSO controls): 0.785
[2]; 250 µM
  C. elegans L1 relative development & viability (score 0-1 relative to DMSO controls): 0.877
[2]; 500 µM
  C. elegans L1 relative development & viability (score 0-1 relative to DMSO controls): 0.667
[2]; read-out: C. elegans ben-1 LC50
  LC50: > 500 µM
[2]; read-out: C. elegans ben-1 log10 LC50 (converted)
  LC50: > 500 µM
[2]; 1 µM, score 0-1 relative to DMSO, values >1 set to 1
  C. elegans L1 relative development & viability: 1.000
[2]; 2 µM, score 0-1 relative to DMSO, values >1 set to 1
  C. elegans L1 relative development & viability: 1.000
[2]; 3.9 µM, score 0-1 relative to DMSO, values >1 set to 1
  C. elegans L1 relative development & viability: 1.000
[2]; 15.6 µM, […]
  C. elegans L1 relative development & viability: 0.861
[2]; 31.3 µM, […]
  C. elegans L1 relative development & viability: 0.962
[2]; 62.5 µM, […]
  C. elegans L1 relative development & viability: 0.936
[2]; 125 µM, […]
  C. elegans L1 relative development & viability: 0.785
[2]; 250 µM, […]
  C. elegans L1 relative development & viability: 0.877
[2]; 500 µM, […]
  C. elegans L1 relative development & viability: 0.667
L1 wild-type C. elegans; dose 0.2 µM
  KCN survival assay value relative to DMSO control, Mean: 1.025
L1 wild-type C. elegans; dose 0.4 µM
  KCN survival assay value relative to DMSO control, Mean: 0.947
L1 wild-type C. elegans; dose 0.8 µM
  KCN survival assay value relative to DMSO control, Mean: 0.953
L1 wild-type C. elegans; dose 3.1 µM
  KCN survival assay value relative to DMSO control, Mean: 0.953
L1 wild-type C. elegans; dose 6.3 µM
  KCN survival assay value relative to DMSO control, Mean: 0.899
L1 wild-type C. elegans; dose 12.5 µM
  KCN survival assay value relative to DMSO control, Mean: 0.967
L1 wild-type C. elegans; dose 25 µM
  KCN survival assay value relative to DMSO control, Mean: 0.933
L1 wild-type C. elegans; dose 50 µM
  KCN survival assay value relative to DMSO control, Mean: 0.872
L1 wild-type C. elegans; dose 100 µM
  KCN survival assay value relative to DMSO control, Mean: 0.880
